From ChEMBL document CHEMBL1132735, “Synthesis and biological evaluation of L- and D-configuration 1,3-dioxolane 5-azacytosine and 6-azathymine nucleosides” (Bioorg Med Chem Lett, 2000)

Columns and labels:
B16-F10 = experiment: Concentration required to inhibit 50% of B16F10 cell replication, tested up to a concentration of 100 uM; format: functional, cell-based; details: Mus musculus
CCRF-CEM = experiment: Concentration required to inhibit 50% of CCRF-CEM cell replication, tested up to a concentration of 100 uM; format: functional, cell-based; details: Homo sapiens
Human alphaherpesvirus 2 = experiment: Concentration required to inhibit 50% of HSV-2 replication; format: functional, organism-based
Human alphaherpesvirus 1 = experiment: Concentration required to inhibit 50% of HSV-1 replication; format: functional, organism-based
Hepatitis B virus = experiment: Concentration required to inhibit 50% of Hepatitis B virus replication; format: functional, organism-based
[1] = tested on: Human immunodeficiency virus 1; experiment: Concentration required to inhibit 50% of HIV-IIIB virus replication; format: functional, organism-based
HepG2 = experiment: Concentration required to inhibit 50% of host cell replication in human hepatoma (2.2.15) cells used against HBV studies; format: functional, cell-based
L1210 = experiment: Concentration required to inhibit 50% of leukemia L1210 cell replication, tested up to a concentration of 100 uM; format: functional, cell-based; details: Mus musculus
MT2 = experiment: Concentration required to inhibit 50% of host cell replication in MT-2 cells used against HIV studies; format: functional, cell-based; details: Homo sapiens
P388 = experiment: Concentration required to inhibit 50% of P388 cell replication, tested up to a concentration of 100 uM; format: functional, cell-based; details: Mus musculus
Vero = experiment: Concentration required to inhibit 50% of host cell replication in Vero cell used against HSV-1 and HSV-2 studies; format: functional, cell-based; details: Chlorocebus sabaeus

Compound	EC50 (B16-F10)	EC50 (CCRF-CEM)	EC50 (Human alphaherpesvirus 2)	EC50 (Human alphaherpesvirus 1)	EC50 (Hepatitis B virus)	EC50 [1]	EC50 (L1210)	EC50 (P388)	IC50 (HepG2)	IC50 (MT2)	IC50 (Vero)
Nc1ncn(C[C@H]2CO[C@@H](CO)O2)c(=O)n1	60 µM	80 µM	> 50 µM	> 50 µM	6.3 µM	1 µM	90 µM	70 µM	27 µM	32 µM	30 µM
Cc1nn(C[C@@H]2CO[C@@H](CO)O2)c(=O)[nH]c1=O	> 100 µM	> 100 µM	> 50 µM	> 50 µM	> 20 µM	> 100 µM	> 100 µM	> 100 µM	> 50 µM	> 100 µM	> 50 µM
Nc1ncn(C[C@@H]2CO[C@@H](CO)O2)c(=O)n1	80 µM	70 µM	> 50 µM	> 50 µM	> 20 µM	> 100 µM	80 µM	70 µM	25 µM	27 µM	28 µM
Cc1nn(C[C@H]2CO[C@@H](CO)O2)c(=O)[nH]c1=O	> 100 µM	> 100 µM	> 50 µM	> 50 µM	> 20 µM	> 100 µM	> 100 µM	> 100 µM	> 50 µM	> 100 µM	> 50 µM
Cc1nn(C[C@H]2CO[C@H](CO)O2)c(=O)[nH]c1=O	> 100 µM	> 100 µM	> 50 µM	> 50 µM	> 20 µM	> 100 µM	> 100 µM	> 100 µM	> 50 µM	> 100 µM	> 50 µM
Nc1nc2c(ncn2COCCO)c(=O)[nH]1 [ACYCLOVIR]			35 µM	23 µM							> 50 µM

Continued, in another order:

EC50 (B16-F10)	EC50 (CCRF-CEM)	EC50 (Human alphaherpesvirus 2)	EC50 (Human alphaherpesvirus 1)	EC50 (Hepatitis B virus)	EC50 [1]	EC50 (L1210)	EC50 (P388)	Compound	IC50 (HepG2)	IC50 (MT2)	IC50 (Vero)
> 100 µM	> 100 µM	> 50 µM	> 50 µM	> 20 µM	> 100 µM	> 100 µM	> 100 µM	Cc1nn(C[C@@H]2CO[C@H](CO)O2)c(=O)[nH]c1=O	> 50 µM	> 100 µM	> 50 µM
70 µM	20 µM	> 50 µM	32 µM	0.6 µM	5 µM	70 µM	90 µM	Nc1ncn(C[C@@H]2CO[C@H](CO)O2)c(=O)n1	17 µM	17 µM	12 µM
70 µM	30 µM	> 50 µM	> 50 µM	6.5 µM	> 100 µM	70 µM	65 µM	Nc1ncn(C[C@H]2CO[C@H](CO)O2)c(=O)n1	17 µM	18 µM	31 µM
				> 20 µM	0.6 µM			Cc1cn([C@H]2C=C[C@@H](CO)O2)c(=O)[nH]c1=O [STAVUDINE]		> 100 µM	
				2.3 µM				Nc1ccn([C@H]2CC[C@@H](CO)O2)c(=O)n1 [ZALCITABINE]	> 37 µM		
